# Test results from publication PMC9460038, “Antigiardial Activity of Foeniculum vulgare Hexane Extract and Some of Its Constituents” (Plants, 2022).
# Where two headings read alike, the source gives them in different places.
# Assays:
# [1] = system: G. duodenalis trophozoites; assay: Antigiardial activity, vial microassay (growth inhibition of trophozoites, 24 h); conditions: for inhibition at 300 µg/mL / IC50: Giardia duodenalis; for inhibition at 300 µg/mL: read-out: % Inhibition at 300 μg/mL; for % Inhibition at 300 μg/mL: G. duodenalis trophozoites; for G. duodenalis IC50 (IC95%): trophozoites, Probit, 95% confidence limits in brackets
# Description: G. duodenalis strain 0989: IMSS was used. G. duodenalis was cultured in TYI-S-33 media supplemented with bile, as previously described [26]. G. duodenalis trophozoites were sub-cultured three times a week. Parasites used in the assays to determine drug susceptibility were harvested when cultures reached the middle of their logarithmic growth phase.
# The concentration of all standard drugs was adjusted to 10 mg/mL. Metronidazole (used as a positive control), and pure compounds were dissolved in (DMSO). All stock solutions were stored at –20 °C until use. Before use in the assays, serial two-fold dilutions of the stock solutions were made in basal TYI medium (without serum). Fifty micro liters of each solution was added into 1 mL glass screw-capped cylindrical vials with a conical interior (Wheaton vial). All vials were filled with 950 μL of a freshly prepared parasite suspension in TYI-S-33 medium plus 10 % bovine serum. G. duodenalis was tested at density of 2 × 10^5 trophozoites/mL. All vials were incubated at 36 °C for 24 h. The vials were then chilled on iced water for 20 min, and the number of trophozoites per milliliter in each tube were counted using a hemocytometer (Neubauer cell-counter chamber) [29]. The percentage of growth inhibition with respect to untreated controls was then determined.
# All experiments were performed in triplicate and in at least three independent bioassays (n = 9 cultures for each analyzed compound). The data were analyzed using GraphPad Prism software version 5.0 (USA). The half-maximum inhibitory concentration (IC50) of each drug was calculated by Probit analysis and 95% confidence limits were calculated.
# Vero cells = assay: Cytotoxic activity on Vero cell line (Trypan blue, 24 h); format: cell-based; conditions: for Vero Cells IC50 (IC95%) / IC50: 24 h; for IC50: Chlorocebus sabaeus, read-out: Vero Cells IC50 (IC95%); for Selectivity Index (SI): ratio of IC50 in Vero cells to IC50 in G. duodenalis
# Description: Cytotoxicity assay was performed on Vero cell line (ATCC CCL-81), as previously described. Briefly, Vero cells were cultivated in Roswell Park Memorial Institute (RPMI) medium supplemented with 10% fetal bovine serum (FBS). […] Each compound was dissolved in dimethyl sulfoxide (DMSO) and sterilized by filtration, and brought to final concentrations of 487, 243.5, 121.75 and 60.875 μg/mL with RPMI medium supplemented with 10% FBS. The cell suspension was adjusted to 1 × 10^4 cells/mL with RPMI medium supplemented with 10% FBS. Cell suspension (200 μL) was placed into a 96-well plate and incubated at 37 °C in a 5% CO2 atmosphere for 24 h. Each compound solution was added to each well containing the Vero cells and incubated for 24 h. The assay was carried out in triplicate. The number of cells were determined in a Neubauer chamber, while the percentage of viable cells was measured with the Trypan blue staining method.
# The SI is the ratio of the IC50 concentration in host cells (Vero cells) to that in parasite (G. duodenalis).
# [2] = system: Mycobacterium tuberculosis H37Rv; design: method as in PMID 22797778; conditions: sensitive strain H37Rv; cited from earlier work
# [3] = source not stated; cited from earlier work
# [4] = Vero cells, Probit, 95% confidence limits in brackets
# [5] = read-out: G. duodenalis IC50 (IC95%), trophozoites, 24 h, Probit, 95% confidence limits in brackets
molecule,measurement,setting,value
CCCCCCCCCCC=O [Undecanal],inhibition at 300 µg/mL,[1],25%
CC1(C)C(=O)[C@@]2(C)CCC1C2 [(S) (+)-Fenchone],% Inhibition at 300 μg/mL,[1],16%
Cc1ccccc1C(C)C [o-Cymene],% Inhibition at 300 μg/mL,[1],30%
CC(=O)OC1C2(C)CCC(C2)C1(C)C (stereo not shown) [Fenchylacetate],% Inhibition at 300 μg/mL,[1],38.5%
"C=C1[C@H]2CC[C@H](C2)C1(C)C [(1R,4S) (+)-Camphene]",Vero Cells IC50 (IC95%),Vero cells; [4],494.3 (492.1–496.4) μg/mL
same,% Inhibition at 300 μg/mL,[1],61%
same,G. duodenalis IC50 (IC95%),[1],181.1 (158.1–207.9) μg/mL
COc1ccc(C=O)cc1 [p-Anisaldehyde],IC50,Vero cells; [4],541 µg/mL
same,Selectivity Index (SI),Vero cells,2.7
same,inhibition at 300 µg/mL,[1],67%
same,IC50,[1]; [5],197 µg/mL
C=CCc1ccc(OC)cc1 [Estragole],IC50,Vero cells; Vero,259 µg/mL
same,Selectivity Index (SI),Vero cells,1.7
same,inhibition at 300 µg/mL,[1],49%
same,IC50,[1]; read-out: G. duodenalis IC50 (IC95%),150 µg/mL
CC1=CCC(C(C)C)=CC1 [γ-Terpinene],inhibition at 300 µg/mL,[1],24%
"CCCCCC/C=C/C=C/C=O [Trans, trans-2,4-undecadienal, trans, trans-2,4-undecadienal]",IC50,Vero cells; [4],589 µg/mL
same,Selectivity Index (SI),Vero cells,8.1
same,MIC,[2],25 µg/mL
same,log P,[3],3.8
same,inhibition at 300 µg/mL,[1],97%
same,IC50,[1]; [5],72.1 µg/mL
same,G. duodenalis IC50 (IC95%),[1],72.1 (57.7–90.1) μg/mL
CCCCCCCC/C=C\CCCCCCCC(=O)O [Oleic acid],inhibition at 300 µg/mL,[1],24%
CC(C)(O)C(C)(C)O [Pinacol],inhibition at 300 µg/mL,[1],2%
CC(C)=CCC[C@@H](C)CCO [(R)- (+)-β-Citronellol],% Inhibition at 300 μg/mL,[1],38%
"Oc1cccc(O)c1 [1,3-Benzenediol]",IC50,Vero cells; [4],438 µg/mL
same,Selectivity Index (SI),Vero cells,2.5
same,inhibition at 300 µg/mL,[1],56%
same,IC50,[1]; [5],169 µg/mL
"Cc1ncc([N+](=O)[O-])n1CCO [Metronidazole, reference compound]",IC50,Vero cells; [4],83.5 µg/mL
same,inhibition at 300 µg/mL,[1],100%
same,IC50,[1]; [5],0.5 µg/mL
CC1(C)C(=O)[C@]2(C)CCC1C2 [(R) (−)-Fenchone],% Inhibition at 300 μg/mL,[1],6.5%
CC1=CCC(=C(C)C)CC1 [Terpinolene],inhibition at 300 µg/mL,[1],30%
(R) (−)-Carvone,Vero Cells IC50 (IC95%),Vero cells; [4],350.7 (348.4–353.0) μg/mL
same,% Inhibition at 300 μg/mL,[1],66%
same,G. duodenalis IC50 (IC95%),[1],207.0 (162.2–267.3) μg/mL
CC(C)[C@]12CC(=O)[C@H](C)[C@H]1C2 [(−)-α-Tujone],% Inhibition at 300 μg/mL,[1],14%
C/C=C/c1ccc(OC)cc1 [Trans-anethol],% Inhibition at 300 μg/mL,[1],17%
